In publication PMC3090393, “New Noncovalent Inhibitors of Penicillin-Binding Proteins from Penicillin-Resistant Bacteria” (PLoS ONE, 2011):

Assays:
[1] = target: PBP2x 5204 (Streptococcus pneumoniae, UniProt P59676); assay: PBP2x 5204 enzymatic inhibition assay (S2d hydrolysis, DTNB); type: biochemical, Streptococcus pneumoniae strain 5204
Experimental: PBP2x-5204 from Streptococcus pneumonia and N-benzoyl-D-alanyl-thioglycolate S2d[21], [22] were prepared as previously described. All assays with PBP2x 5204 were carried out in 96-well microtiter plates (Brand, Wertheim, Germany). PBP2x 5204 (0.6 µM) was incubated in the presence of the potential inhibitors in 10 mM sodium phosphate buffer (pH 7.0) containing 70 mM D-alanine and 0.01 mg/mL BSA, for 4 h at 25°C. This preincubation was used to also detect slow binding inhibitors. After the preincubation, the RA of PBP2x 5204 was determined. The initial rate of hydrolysis of 1 mM S2d in the presence of 1 mM DTNB was determined by monitoring the increase in absorbance at 412 nm (DTNB: ε[Δ ε] = […]) using a microplate absorbance reader (Power Wave X, Biotek Instruments, Winooski, U.S.A.). The rate of spontaneous hydrolysis of S2d in the presence of the potential inhibitors was also determined in the absence of PBP2x 5204. All of the assays were carried out in triplicate. The determination of the RA of PBP2x 5204 in the absence of inhibitors was carried out six times on each plate. A test compound was considered as an inhibitor if the RA was <80%. In this case, to reveal false positives, the assays were also carried out under the same conditions in the presence of 0.01% Triton X-100. As described in the literature, promiscuous inhibitors (false positives) are slow binding, noncompetitive inhibitors. To avoid detailed kinetic investigations, it is possible to identify such compounds by carrying out the assays in the presence of Triton X-100[14], [19]. Promiscuous inhibitors show no inhibition in the presence of Triton X-100. The IC50 values in the presence of Triton X-100 were determined if the RAs were <50%. (RA: ∼50%, IC50∼c, c: concentration of compound in the assay; RA >50%, IC50 > c). The RA was measured over a range of concentrations, from which the IC50 values were determined by non-linear regression analysis, using Sigma Plot (Systat software) and fitting the data to the equation y = y0+(a×b)/(b+x)[23].

[2] = target: PBP5fm (Enterococcus faecium, UniProt Q47759); assay: PBP5fm enzymatic inhibition assay (fluorescein-labeled ampicillin, residual penicillin binding activity); type: biochemical, Enterococcus faecium D63r; details: 4 h; residual activity of the enzyme at 1 mM inhibitor; 0.01% Triton X-100; read-out: PBP5fm RA [%]
Experimental: PBP2a from Staphylococcus aureus ATCC 43300 and PBP5fm from Enterococcus faecium D63r were overproduced and purified as described previously, [18].
Each of the purified PBPs (2.5 µM) were first incubated with 1 mM potential inhibitor in 100 mM phosphate buffer, 0.01% Triton X-100[19], pH 7, for 4 h at 30°C. Then, 25 µM fluorescein-labeled ampicillin[20] was added to detect the residual penicillin binding activity (RA). The samples were further incubated for 30 min at 37°C in a total volume of 20 µL. Denaturation buffer was added (0.1 M Tris/HCl, pH 6.8, containing 25% glycerol, 2% SDS, 20% β-mercaptoethanol and 0.02% bromophenol blue) and the samples were heated to 100°C for 1 min. The samples were then loaded onto a 10% SDS-acrilamide gel (10×7 cm) and electrophoresis was performed for 45 min at 180 V (12 mA). Detection and quantification of the RAs were with Molecular Image FX equipment and Quantity One software (BioRad, Hercules, CA, USA). Three independent experiments were carried out for each inhibitor.

Chain of PBP2x 5204 (P59676 49-750): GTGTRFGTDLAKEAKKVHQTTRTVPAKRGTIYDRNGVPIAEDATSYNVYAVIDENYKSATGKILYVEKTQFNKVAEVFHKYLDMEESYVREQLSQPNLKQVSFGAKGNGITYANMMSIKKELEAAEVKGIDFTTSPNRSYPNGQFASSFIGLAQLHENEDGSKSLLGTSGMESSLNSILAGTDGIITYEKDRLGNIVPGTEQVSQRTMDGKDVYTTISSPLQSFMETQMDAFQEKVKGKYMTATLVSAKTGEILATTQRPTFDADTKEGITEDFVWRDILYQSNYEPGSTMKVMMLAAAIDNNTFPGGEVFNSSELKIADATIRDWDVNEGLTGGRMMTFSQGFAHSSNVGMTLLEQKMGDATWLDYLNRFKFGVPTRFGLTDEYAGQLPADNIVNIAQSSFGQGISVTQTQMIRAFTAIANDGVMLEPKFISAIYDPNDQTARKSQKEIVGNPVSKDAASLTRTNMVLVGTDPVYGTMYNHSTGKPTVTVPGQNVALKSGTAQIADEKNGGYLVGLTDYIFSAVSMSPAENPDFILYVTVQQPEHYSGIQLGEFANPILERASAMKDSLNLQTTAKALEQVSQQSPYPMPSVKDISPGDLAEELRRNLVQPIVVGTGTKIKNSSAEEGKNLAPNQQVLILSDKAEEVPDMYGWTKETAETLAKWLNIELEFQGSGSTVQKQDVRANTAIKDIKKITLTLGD
Chain of PBP5fm (Q47759 entry or part of it): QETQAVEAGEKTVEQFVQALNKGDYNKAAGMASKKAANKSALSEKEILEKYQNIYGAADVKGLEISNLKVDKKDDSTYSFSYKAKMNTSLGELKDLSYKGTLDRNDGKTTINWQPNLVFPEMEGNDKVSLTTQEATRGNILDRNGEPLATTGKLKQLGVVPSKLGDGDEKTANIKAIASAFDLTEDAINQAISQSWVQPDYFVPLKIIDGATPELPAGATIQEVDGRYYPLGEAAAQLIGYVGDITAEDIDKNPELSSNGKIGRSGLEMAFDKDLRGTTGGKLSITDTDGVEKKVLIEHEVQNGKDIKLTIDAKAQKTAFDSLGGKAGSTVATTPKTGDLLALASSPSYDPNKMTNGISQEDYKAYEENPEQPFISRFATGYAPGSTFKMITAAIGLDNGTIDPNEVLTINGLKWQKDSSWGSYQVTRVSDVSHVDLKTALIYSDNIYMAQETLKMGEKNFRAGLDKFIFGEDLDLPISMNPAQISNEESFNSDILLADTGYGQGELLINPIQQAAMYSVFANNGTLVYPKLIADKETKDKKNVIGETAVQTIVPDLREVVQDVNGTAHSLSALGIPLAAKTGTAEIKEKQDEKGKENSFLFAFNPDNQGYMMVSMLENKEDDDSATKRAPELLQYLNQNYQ

## CCCCOc1ccc2cc(S(=O)(=O)Nc3ccccc3C(=O)O)ccc2c1 [compound 1, 2-(6-butoxynaphthalene-2-sulfonamido)benzoic acid]
[1]; read-out: PBP2x5204 IC50, in the presence of 0.01% Triton X-100
  IC50: 391 µM
[1]; residual activity of the enzyme at 500 µM inhibitor, 240 min
  PBP2x5204 RA [%]: 38%
[2]
  activity at 1000 µM: 100%
